Measurements reported in patent publication US20220313620A1, “COMPOSITION FOR PREVENTING AND TREATING TAUOPATHIES” (SERVICIO ANDALUZ DE SALUD, priority 2019, published 2022).

How the values were obtained:
insulin = assay: Plasma insulin (ELISA) and HOMA insulin resistance index after acute oral gavage; format: in vivo; conditions: adult male Wistar rats
Description: The protocol was approved by the Ethics Committee for Animal Experiments of the University of Malaga.
D-Pinitol (3-0-methyl-D-chiro-inositol) was generously provided by EURONUTRA SL (https://www.euronutra.com/, Malaga, Spain), in the form of crystalline fine powder (lot: PPN-M0201). For acute treatments, D-Pinitol was dissolved in water to be administered by gavage (orally) at different concentrations (100 mg/Kg and 500 mg/Kg), drug was administered at a volume of 1 ml/kg.
After 18 hours of fasting, D-Pinitol dissolved in water was administered acutely by gavage (100 mg/kg in a first study, and 500 mg/kg in a subsequent study). After administration, the animals were sacrificed in groups at different times (being time 0 the administration of D-Pinitol). For the first study (100 mg/kg), groups of animals were sacrificed at times: 10, 20, 30, 60, 120, 240 and 360 minutes after administration; for the second study (500 mg/kg), animals were sacrificed at times: 60, 120 and 240 minutes after administration. As a control group, a group was administered only with water (by gavage).
Animals were anesthetized with sodium pentobarbital (50 mg/Kg, i.p.), blood, brain and liver samples were collected. Blood was centrifuged (2100 g for 8 min, 4° C.) and the plasma kept for further analysis. Liver and brain samples were flash-frozen in liquid N2, then stored at −80° C. until further analysis.
The plasma levels of insulin and ghrelin were determined with an enzyme-linked immunosorbent assay (ELISA) method using commercial kits: EMD Millipore Corporation (Billerica, Mass., USA) Cat. #EZRMI-13K and Cat. #EZRGRT-91K, respectively. Glucagon levels in plasma was determined with a Glucagon Enzyme Immunoassay (EIA) Kit: Cat. #RAB0202 Sigma-Aldrich (Saint Louis, Mo., USA). All serum samples were assayed in duplicate within one assay, and results were expressed in terms of the particular standard hormone.

Protein Kinase A (PKA) = assay: Hippocampal PKA (western blot) after 10 days of oral drinking; format: in vivo, Wistar rats; conditions: oral by drinking 100 mg/Kg for 10 days, hippocampus, FIG. 10A.2
Description: Animal experimental procedures were carried out in accordance with the European Communities directive 2010/63/EU and Spanish legislation (Real Decreto 53/2013). The protocol was approved by the Research and approved by Ethics Committee for Animal Experiments of the University of Malaga, Spain. In accordance with the ARRIVE guidelines, all efforts were made to minimize animal suffering and to reduce the number of animals used per experimental group. Chronic drinking experiments on Wistar rats were performed on 20 male rats. All adult rats, ageing 2 months (≈300 g of body weight), were provided by Charles River Laboratories (Barcelona, Spain). The animals were housed individually under a standard 12 h light-dark cycle in a room with temperature and humidity control. Water and rat chow pellets were provided ad libitum throughout the course of the present study. […]
(§1) Western Blot Analysis. […] Bands were quantified by densitometric analysis using ImageJ software (Rasband, WS, ImageJ, US National Institutes of Health, Bethesda, Md., USA). […] The results were expressed as the protein/α-Adaptin ratio or phosphorylated/total protein ratio and normalized to the control group (Y axis represents ‘fold mean of the control values’).
(§2) All data are expressed as mean±SEM. […]

[1] = test system: Cyclin Dependent Kinase 5 (CDK5); assay: Hippocampal CDK5, p35 and p25 protein levels (western blot) after 10 days of oral drinking; format: in vivo, Wistar rats; conditions: oral by drinking 100 mg/Kg for 10 days, hippocampus, FIG. 8A
Description: Animal experimental procedures were carried out in accordance with the European Communities directive 2010/63/EU and Spanish legislation (Real Decreto 53/2013). The protocol was approved by the Research and approved by Ethics Committee for Animal Experiments of the University of Malaga, Spain. In accordance with the ARRIVE guidelines, all efforts were made to minimize animal suffering and to reduce the number of animals used per experimental group. Chronic drinking experiments on Wistar rats were performed on 20 male rats. All adult rats, ageing 2 months (≈300 g of body weight), were provided by Charles River Laboratories (Barcelona, Spain). The animals were housed individually under a standard 12 h light-dark cycle in a room with temperature and humidity control. Water and rat chow pellets were provided ad libitum throughout the course of the present study.
Caromax®-D-Pinitol (3-O-methyl-d-chiro-inositol, DPIN, 98% purity) and Caromax®-D-Chiro-inositol (cis-1,2,3-trans-3,5,6-cyclohexanehexol, DCI) were provided by Euronutra SL (Málaga, Spain). They were dissolved in water to orally daily administration by drinking and/or gavage at dose of 100 mg/Kg of body weight (BW) in a 1 ml/kg of BW volume to Zucker and Wistar rats for 4 weeks (28 days) and 10 days, respectively (FIG. 1). During the drinking treatments, the concentration of inositols in the water were updated considering the daily increase of BW of the rats and the possible loss of water by evaporation.
Brain extract. […]
as §1, §2

In the case of `COC1[C@@H](O)[C@@H](O)C(O)[C@H](O)[C@H]1O` (stereo partly drawn) [DPIN, (1S,2S,4S,5R)-6-methoxycyclohexane-1,2,3,4,5-pentol], the “insulin release into the blood circulation” value (insulin; oral 100 mg/kg, FIG. 2B) is reported as “decreased”, the “insulin resistance measured by the HOMA index” value (insulin; oral 100 mg/kg, FIG. 2C) is reported as “reduction” and the “insulin release into the blood circulation” value (insulin; oral 500 mg/kg, FIG. 3B) is reported as “decreased”. The “insulin resistance measured by the HOMA index” value (insulin; oral 500 mg/kg, FIG. 3D) was “reduction”, the “total amount of PKA” value (Protein Kinase A (PKA)) was “significant increase” and the “amount of p25” value [1] was “significantly decreased”. The “amount of p35 subunit” value [1] was “significantly decreased” and the “total amount of CDK5” value [1] was “does not vary”.
